According to US11779015B2, “Pesticide compositions” (FUNDACIÓ CENTRE DE REGULACIÓ GENÒMICA, priority 2017, dated 2023):

Key:
D. suzukii = experiment: Positional and ovipositional preference on food substrate plated with compound; type: in vivo, Drosophila suzukii; details: for positional preference/avoidance of adult flies: food plated with compound vs blank, monitored over 5 hours
Method: Adult flies 200 are placed in a plastic box 600 with mesh-netting 800 in the lid to allow aeration. Two food sources 400a and 400b (for example petri dishes containing molasses-apple juice agar substrates) are placed into the box 600, of which one 600a is plated with a compound to be tested, and the other 600b is left blank as a control.
Using this experimental set up and pure (E)-2-hexenal or methyl benzoate, the positional preference of the flies was monitored over 5 hours. The ovipositional preference was measured after 24 hours by counting the number of eggs laid on either plate. […] The same experimental set up was used to test for positional and ovipositional preference using different concentrations of (E)-2-hexenal, i.e. 1.2% vol, 3.4% vol, 11.6% vol and 34% vol. The results of these assays are shown on FIG. 7C. All data shown represents the mean+S.E.M. over 2 to 6 trials per condition. In FIG. 7C, deviations marked by a star are associated with a unpaired t-test p-value below 0.05 following a one-way ANOVA test with F(4,22)=3.987 (p=0.017).
Petri dishes (∅ 6 cm) filled with 10 ml of a molasses-apple juice-agar medium acted as food substrate. These were plated with methyl benzoate or (E)-2-hexenal. Two Petri dishes were placed inside a plastic box (32×22×12 cm) with a mesh netting in the lid. One dish was plated with a thin layer of pure odour (1.8 μl (E)-2-hexenal or 0.9 μl methyl benzoate when used pure, or 50 μl of (E)-2-hexenal when used in diluted solutions), and the other was left blank as a control. More (E)-2-hexenal was used because its vapour pressure is 4 times lower than that of methyl benzoate and, thus, is prone to dissipate faster. 20 mixed sex adult flies were placed inside the plastic box and monitored every 0.5 hours, over a period of 5 hours, to assess their positional preference by counting the number of flies positioned on either plate. After 24 hours, their ovipositional preference was monitored by counting the number of eggs laid on either dish. Flies were cooled on ice for handling and discarded after each trial.

D. sechellia = experiment: Airborne toxicity petri dish assay, adult flies (FIG. 1A); type: in vivo; details: 10% vol
Text: (§1) In particular, adult flies 2 were exposed to compositions 4 comprising one or more of a selection of VOCs according to the invention or a comparative example, in a petri dish 6. The compositions 4 were loaded onto the lid 6a of the petri dish 6 and the flies were placed into the base 6b of the dish, which was then covered by a sheet of plastic mesh netting 8 to avoid direct contact of the flies 2 with the compositions 4, before replacing the lid 6a. The onset of paralysis/loss of locomotion control, ultimately resulting in death of the flies 2, was monitored over a period of 1 hour or until all flies 2 were dead, determined when fly wings were vertical (similar to the protocol described in Legal et al. 1992 and 1994).
(§2) Adult flies of Drosophila species were exposed to a 10% vol solution of (E)-2-hexenal and 10% vol solution of methyl benzoate, in an experimental set up as explained in relation to FIG. 1A. For each VOC, species of the suzukii complex (D. suzukii, D. biarmipes), melanogaster complex (D. melanogaster, D. simulans, D. sechellia), and erecta+yakuba complex (D. erecta, D. yakuba, D. santomea) of the melanogaster species group were compared. 5-10 mixed female and male adults were used per trial. FIGS. 4A and B show the results of these experiments, respectively for (E)-2-hexenal (FIG. 4A) and methyl benzoate (FIG. 4B). The data shown represents the average±SEM of the proportion of dead flies as a function of time, over 3 to 6 assays per condition.

D. yakuba = experiment: as above; type: in vivo; details: 10% vol
Text: as §1, §2

D. simulans = experiment: as above; type: in vivo; details: 10% vol
Text: as §1, §2

D. biarmipes = experiment: as above; type: in vivo; details: 10% vol
Text: as §1, §2

D. erecta = experiment: as above; type: in vivo; details: 10% vol
Text: as §1, §2

[1] = system: honeybees (Apis mellifera); experiment: Airborne toxicity on honeybees in the petri dish assay; type: in vivo; details: adult bees exposed for one hour; for toxicity to honey bees: 10% vol
Method: The toxicity of (E)-2-hexenal and methyl benzoate volatiles was tested at 100% (pure) and 10% vol. concentrations on honeybees (Apis mellifera) in the petri dish assay of FIG. 1A. Adult bees were exposed for one hour and the proportion of death across all trials (5 trials with each of the pure VOCs and 10 trials for each of the 10% vol VOC assays) was calculated. The results of these experiments are shown on FIG. 8.
Honeybee foragers were obtained from a large bee keeping company (Agroquímica Ollé, http://agroquimicaolle.com). Bees were held in an incubator at 22 degrees for a few days and provided with ad libitum sugar water.

D. melanogaster = experiment: Airborne toxicity petri dish assay, adult flies exposed to VOC vapours (FIG. 1A); type: in vivo, Drosophila melanogaster; details: for LD50 (expected concentration at which 50% of the flies die): D. melanogaster adults, vapours from solution in paraffin oil, within an hour
Text: as §1
Having established that the VOCs of the invention are toxic to Drosophila spp., and in particular, D. suzukii, upon exposure to the vapours from a 10% vol. solution, the inventors set out to determine the range of concentrations at which the pesticide VOCs of the invention are expected to be lethal to Drosphila spp. Two species were chosen: the pest D. suzukii and the common Drosophila model D. melanogaster. Two exemplary compounds were chosen: (E)-2-hexenal and methyl benzoate, both of which were shown in Example 1 to be highly toxic to D. suzukii. The experimental set up used was as described in relation to FIG. 1A.
FIGS. 3A and 3C show the proportion of dead flies as a function of time in minutes, when exposed to the vapours of (E)-2-hexenal (FIG. 3A) or methyl benzoate (FIG. 3C) from a 1%, 5%, 10%, or 20% solution in paraffin oil or from pure (E)-2-hexenal or methyl benzoate. […] The data is shown as averages±SEM based on 3 to 6 trials for each condition. […]

[2] = D. melanogaster, concentration 1% vol
[3] = D. melanogaster, concentration 5% vol
[4] = D. melanogaster, concentration 10% vol
[5] = D. melanogaster, concentration 20% vol
[6] = D. melanogaster, concentration 100% vol

SMILES	positional preference/avoidance of adult flies (D. suzukii)	concentration from which flies avoid laying their eggs on the plated side (D. suzukii; tested 1.2, 3.4, 11.6 and 34% vol, eggs counted after 24 hours)	T50 (D. sechellia)	T50 (D. yakuba)	T50 (D. simulans)	T50 (D. biarmipes)	T50 (D. erecta)	toxicity to honey bees [1]	toxicity to honey bees (rate) ([1]; 100% (pure) compound)	LD50 (expected concentration at which 50% of the flies die) (D. melanogaster)	T50 (time at which 50% of the flies were dead) (D. melanogaster; [2])	T50 (time at which 50% of the flies were dead) (D. melanogaster; [3])	T50 (time at which 50% of the flies were dead) (D. melanogaster; [4])	T50 (time at which 50% of the flies were dead) (D. melanogaster; [5])	T50 (time at which 50% of the flies were dead) (D. melanogaster; [6])	ovipositional preference (egg-laying) (D. suzukii; food plated with pure compound vs blank, eggs counted after 24 hours)	T50 (D. melanogaster; D. melanogaster, 10% vol)
CCC/C=C/C=O [(E)-2-hexenal]	relatively weak	≥ 3.4 % vol	22.7 min	8.7 min	9 min	15.4 min	5.3 min	low levels of toxicity	significantly faster rate than pure methyl benzoate	13.8 % vol	not lethal	not lethal	not lethal	6.5 min	6.2 min		
COC(=O)c1ccccc1 [methyl benzoate, Methyl benzoate]	stronger avoidance response		34 min	11 min	9.4 min	9.6 min	13.8 min	low levels of toxicity		7.5 % vol	non lethal	non lethal	18.2 min	9.8 min	9.1 min	strong egg-laying deterrent	18.2 min
